The source of these data is US11447638B2, “Acetalanthraquinone derivatives useful for cellular staining” (BIOSTATUS LIMITED, priority 2016, dated 2022).

The subject of one data set is MCF7. Kind of data set: MTT cellular viability (growth inhibition) assay, MCF7. Format: cell-based. Particulars: Homo sapiens, 0.25-100 μM, 72 h, Table 3. The protocol:
(§1) The viability of A549 or MCF7 in response to compounds was determined using the MTT (3-(4,5-dimethylthiazolyl-2-)-2, 5-diphenyltetrazolium bromide) assay according to the protocol set out in Mosmann T., Rapid colorimetric assay for cellular growth and survival: application to proliferation and cytotoxicity assays. Journal of immunological methods 1983; 65:55-63.
(§2) Initially, cells were seeded into a rounded-bottom 96 well plate (Corning) at six different cell seeding densities (0.5×104, 1×104, 2×104, 3×104, 4×104, and 5×104) per mL of R10 media (cells/mL) in order to optimise the assay and establish the most suitable seeding assay. Concentration of 1×10^4 cells/mL was determined to be the optimum seeding density for both cell lines for 96 h total incubation. A control lane contained supplemented R10 only. The 96 well plates were incubated overnight at 37° C., 5% CO2 and 100% humidity to allow cell adhesion. Cells were then treated respectively with novel AAQs (0.25-100 μM) or growth inhibition (IC50) of compounds of the invention was studied against MCF7 and A549 cancer cell lines. Compounds were tested with a concentration range between 0.25 and 100 μM for 72 h and doxorubicin, as positive cytotoxic control, was tested in parallel at the same doses.

For another data set, the system named is A549. In words: MTT cellular viability (growth inhibition) assay, A549. Format: cell-based. Conditions: Homo sapiens, 0.25-100 μM, 72 h, Table 3. The protocol:
as §1, §2

The test system of the next data set is U-2 OS cells. In words: Confocal laser scanning microscopy (CLSM) localisation analysis. Format: cell-based, human. Conditions: 30 min incubation, Ex 637 nm, Em >665 nm, FIG. 4 and 5. The protocol: Confocal laser scanning microscopy (CLSM) was used to analyse the localisation of compounds BST-100, BST-101 and BST-106 with the U-2 OS cells, as it permitted the acquisition of volume limited optical sections through the cell and media. Excitation (637 nm) and emission (>665 nm) values for the probe analysis were the optimal conditions. The data sets obtained were processed and assembled into a single maximum projection image.
The patterns were analysed after 30 min incubation at different z depths and eliminating the solution background. The nucleus/cytoplasm ratio was calculated to quantify the localisation of the probe per cell.
A Radiance CLSM (BioRad Microscience) was used attached to an inverted Nikon microscope. Image acquisition was performed using excitation (637 nm) and emission (>665 nm) wavelengths. The histogram plot reports the nucleus/cytoplasm index to determine DNA binding in live cells. The calibration bar represents 10 μm.
The compounds BST-108, BST-109 were analysed in the same way.

Data set [1] can be described thus: Absorption and fluorescence spectra of compounds in PBS or HEPES. Format: physicochemical. Conditions: for peak excitation wavelength: excitation wavelength used for fluorescence spectra of FIG. 1A/1B; for fluorescence emission, λ1 nm (Ex in HEPES) / fluorescence emission, λ1 nm (Ex in PBS): excited at absorption peak 1 (λ1); for fluorescence emission, λ1 nm (Ex in HEPES) / fluorescence emission, λ1 nm (Ex in PBS) / fluorescence emission, 540 nm (Ex in PBS): 20 μM; for fluorescence emission, 540 nm (Ex in PBS): excited at 540 nm. The protocol:
The compounds were exited at 540 nm and at the wavelength of their absorption peak 1 (λ1 nm). The far-red fluorescent DNA dye DRAQ5 was used as reference.
Compounds were dissolved in DMSO (Sigma) to 20 mM stock concentration. DRAQ5 (Biostatus Ltd) was used as a control anthraquinone agent dissolved in deionised water. Working solutions were prepared in PBS (phosphate buffered saline; Sigma) or HEPES (4-(2-hydroxyethyl)-1-piperazineethanesulfonic acid; Sigma) at 20 or 40 μM. Probe solutions (20 μM), respectively in PBS or HEPES, were pipetted into a 1 mL quartz cuvette (Thermo Fisher Scientific). After obtaining baseline spectra in relevant buffer to zero the instrument, absorbance measurements were obtained using a Beckmann Coulter DU 800 UV/Visible spectrophotometer. The excitation wavelengths were scanned from 280 to 800 nm. Fluorescent spectral scans were performed using a Perkin Elmer LS-50B Luminescence spectrophotometer. To obtain emission scans, the excitation wavelength was set accordingly to the maximum values for each agent or another designated excitation wavelength that matches typical laser lines; and the emission wavelength were scanned from 400 nm to 900 nm in 1 nm increments. A Xenon flash lamp was used as the light source, with the lamp energy set to high. For each data point ten measurements were acquired with the photomultiplier tube sensitivity set at 125.
Compounds were excited at a wavelength corresponding to the first absorbance peak 1 (FIG. 1A and FIG. 1B show absorption (line) and fluorescence (dots) spectra of compounds; both are normalised to peak value.

The subject of a further data set is A549 cells. Kind of data set: Flow cytometry analysis of cell uptake before/after hydrolysis. Particulars: 20 μM, 30 min, solution: media. In kind it is cell-based, human. The protocol:
Flow cytometry analysis was performed to evaluate the effect of pre-treatment with HCl to generate an active aldehyde on the cell uptake properties. A549 cells were incubated for 30 min with compounds of Formula (I) and its hydrolysed forms (20 μM) prior to analysis. The rate of uptake was tested in A549 cell culture media and in Aldefluor buffer, containing the MDR-blocker verapamil (Pearce and Bonnet 2007), to evaluate the effect in uptake with/without the Aldefluor assay system. Analysis was conducted in the viable subset of cells, corresponding to ˜95% of the total amount under investigation.
Aldefluor buffer contained verapamil vs. cell media. The cells were incubated with 20 μM of the respective AAQ/HAAQs (30 min) before analysis
Statistical analysis of A549 uptake before/after hydrolysis was also studied. Experiments were performed in cell media versus Aldefluor buffer. Data were processed using FlowJo software (Tree Star). DRAQ5 was used to set the dynamic range and as control dye and empty cells were used to determine auto-fluorescence.
In general terms: In flow cytometry, cells or beads pass a laser one at a time.

The test system of another data set is A549 live cells. In words: Loading of A549 live cells, wide-field fluorescence microscopy. Format: cell-based, human. Conditions: 20 μM, 30 min incubation, FIG. 3. The method, then:
Before analysis, cells were incubated at 37° C. in the dark for the period designated. Samples were analysed directly without any further washing step. For live cell labelling cells were seeded, plated in a similar way, into a similar multi-well dish for optimal optical performance and could be used across all microscope platforms.
This basic protocol was the standard for testing the patterns of AAQ agents at 20 μM, compared to 20 μM of DRAQ5 as the benchmark reference (both in terms of cellular location and ability to detect the red fluorescence).
Low resolution wide-field fluorescence microscopy was used to evaluate cell uptake and localisation of the probe compounds. The system was an Axiovert 100 microscope (Carl Zeiss, Welwyn Garden City, UK) ×10 0.3 NA air objective lens and an ORCA-ER CCD camera (Hamamatsu, Reading, UK). Illumination was controlled by a shutter in front of the transmission lamp. Image capture was controlled using Metamorph software. Human non-small cell lung cancer A549 cell line was used as the cell model to determine whether variation of the probe loading and localisation occurred in cell population sustaining a “side population” (SP) (Smith P J, Wiltshire M, Chappell S C, Cosentino L, Burns P A, Pors K, Errington R J. Kinetic analysis of intracellular Hoechst 33342—DNA interactions by flow cytometry: misinterpretation of side population status? Cytometry A 2013; 83:161-9) with a known capacity to efflux xenobiotic molecules, including the DNA dye Hoechst 33342.
Cells were incubated for 30 min with each compound and then images were collected at a 30 ms exposure time using low resolution wide-field fluorescence microscopy. Using an Axiovert 100 microscope (Carl Zeiss, Welwyn Garden City, UK) ×10 0.3 NA air objective lens and an ORCA-ER CCD camera (Hamamatsu, Reading, UK). Illumination was controlled by a shutter in front of the transmission lamp. Image capture was controlled using Metamorph software. The calibration bar represents 50 μm.

Molecules are shown by their SMILES.

Usually IC50 stands for the concentration needed to halve the response being measured. Read a low IC50 as greater potency in that assay. For `COC(CCCCNc1ccc(NCCN(C)C)c2c1C(=O)c1c(O)ccc(O)c1C2=O)OC` [BST-107, 1-(5,5-Dimethoxypentylamino)-4-(2-(dimethylamino)ethylamino)-5,8-dihydroxyanthracene-9,10-dione], the IC50 with MCF7 was found to be 1.66 µM; with A549, 17.5 µM.
For `COC(CCCCNc1ccc(NCCCCC(OC)OC)c2c1C(=O)c1c(O)ccc(O)c1C2=O)OC` [BST-100, 1,4-Bis(5,5-dimethoxypentylamino)-5,8-dihydroxyanthracene-9,10-dione], in the data set on U-2 OS cells, the “subcellular localisation by CLSM” value is “low levels of probe in the perinuclear region, with probable overload in Golgi body and large vesicles”. Moreover, in data set [1], the peak excitation wavelength is recorded as 584 nm; the “fluorescence emission, λ1 nm (Ex in HEPES)” value came to 740 nm; the “fluorescence emission, λ1 nm (Ex in PBS)” value stood at 747.5 nm.
For `CN(C)CCNc1ccc(O)c2c1C(=O)c1c(O)ccc(NCCN(C)C)c1C2=O` [DRAQ5, reference compound], in data set [1], the “fluorescence emission, 540 nm (Ex in PBS)” value came out at 635 nm; the “fluorescence emission, λ1 nm (Ex in HEPES)” value was over 665 nm; the “fluorescence emission, λ1 nm (Ex in PBS)” value is listed as over 665 nm. Further, the “Median (fluorescence, uptake)” value in the data set with A549 cells is on record as 217.4. Besides, the “% ile (25)” value in the data set on A549 cells (low loader cell population) is 191.27.
On to `COC(CN(CCNc1ccc(NCCN(Cc2ccccc2)CC(OC)OC)c2c1C(=O)c1c(O)ccc(O)c1C2=O)Cc1ccccc1)OC` [BST-202, 1,4-bis((2-(benzyl(2,2-dimethoxyethyl)amino)ethyl)amino)-5,8-dihydroxyanthracene-9,10-dione], for which, in data set [1], the “fluorescence emission, λ1 nm (Ex in HEPES)” value turned out to be 680 nm.
Take `COC(CNC(=O)CCNc1ccc(NCCC(=O)NCC(OC)OC)c2c1C(=O)c1c(O)ccc(O)c1C2=O)OC` [BST-104, 3,3′-(5,8-dihydroxy-9,10-dioxo-9,10-dihydroanthracene-1,4diyl)bis(azanediyl)bis(N-(2,2-dimethoxyethyl)propanamide)]: in data set [1], the “fluorescence emission, 540 nm (Ex in PBS)” value worked out at 712 nm; the “fluorescence emission, λ1 nm (Ex in HEPES)” value turned out to be 726 nm; the “fluorescence emission, λ1 nm (Ex in PBS)” value is given as 684 nm.
`COC(CNC(=O)CCNc1ccc(NCCC(=O)NCC(OC)OC)c2c1C(=O)c1ccccc1C2=O)OC` [BST-102, 3,3′-(9,10-Dioxo-9,10-dihydroanthracene-1,4-diyl)bis(azanediyl)bis(N-(2,2-dimethoxyethyl)propanamide)] displayed an IC50 in the data set with MCF7 of 1.75 µM. In addition, in data set [1], the peak excitation wavelength was determined as 585 nm; the “fluorescence emission, 540 nm (Ex in PBS)” value is listed as 670 nm; the “fluorescence emission, λ1 nm (Ex in HEPES)” value was 663 nm; the “fluorescence emission, λ1 nm (Ex in PBS)” value stood at 661 nm. This molecule showed an IC50 with A549 of over 100 µM.
As for `COC(CN(C)CCNc1ccc(NCCN(C)CC(OC)OC)c2c1C(=O)c1c(O)ccc(O)c1C2=O)OC` [BST-201, 1,4-bis((2-((2,2-dimethoxyethyl)(methyl)amino)ethyl)amino)-5,8-dihydroxyanthracene-9,10-dione], the “staining pattern in live cells” value with A549 live cells is reported as “perinuclear accumulation”. In addition, in data set [1], the “fluorescence emission, 540 nm (Ex in PBS)” value amounted to 684 nm; the “fluorescence emission, λ1 nm (Ex in HEPES)” value is listed as 684 nm; the “fluorescence emission, λ1 nm (Ex in PBS)” value is given as 690.5 nm.
On to `COc1cccc2c1C(=O)c1c(O)c3c(c(O)c1C2=O)C[C@@](O)(C(=O)CO)C[C@@H]3O[C@H]1C[C@H](N)[C@H](O)[C@H](C)O1` [Doxorubicin, doxorubicin, reference compound], for which the IC50 turned out to be 0.028 µM in the data set on MCF7 and 0.05 µM in the data set on A549.
